Measurements as given in patent US20070082856A1, “Combination therapy comprising the use of et-743 and doxorubicin for treating cancer” (Pharma Mar, S.A.U., priority 2003, published 2007).

Key:
[1] = tested on: untreated metastatic soft tissue sarcomas (STS) and advanced pre-treated anthracyline-naïve breast cancer (ABC); assay: Phase I clinical trial (Example 1): antitumor activity of ET-743 in combination with doxorubicin; type: in vivo, human
Protocol: In this multicenter dose and LTS finding trial, patients were assigned consecutively to start either with sequence A (ET-743 before Doxo) or with the reverse sequence (B) at the following dose levels every 21 days: […] Oral steroids premedication for ET-743 was given 24 h before and for 48 h following the day of treatment. […] Patients continued treatment until progressive disease (PD) or intolerance, and were […] 2 cycles for activity. In this study, 22 patients were enrolled and evaluable. The patients were required to have normal liver, renal, cardiac and haematologic functions and good performance status for entry into the study. Enrolment was restricted to breast cancer and soft tissue sarcoma.

[2] = Phase I clinical trial (Example 1): pharmacokinetics of both drugs for the 2 sequences; type: in vivo, human; conditions: for influence of order of administration on pharmacokinetics: ET-743 and Doxo, sequence A versus B; for comparison of the plasma disposition in patients receiving both sequences: ET-743 and doxorubicin, sequences A and B, cycle 1 and cycle 2
Protocol: Pharmacokinetic [PK] of both drugs was determined for the 2 sequences at cycle 1 and cycle 2, when patients received the drugs in the reverse order of administration. Alternating sequence was discontinued at observation of dose limiting toxicity [DLT]: observation of grade 4 hematological toxicity for more than 3 days at the entry level. Both drugs were administered on day 1, with a 1 h interval between the 2 drugs (ET-743, 3-hr infusion i.v. and Doxo, 1-hr infusion i.v push with steroids & 5-HT3 antagonists as antiemetic prophylaxis). Oral steroids premedication for ET-743 was given 24 h before and for 48 h following the day of treatment. Doxo was administered at the fixed dose of 60 mg/m^2, while ET-743 was started at 600 μg/m^2 and escalated thereafter in subsequent cohorts of at least 3 new cases. Patients continued treatment until progressive disease (PD) or intolerance, and were restaged every 2 cycles for activity.

[3] = human, in vivo
[4] = tested on: human tumor xenografts, including melanoma and ovarian and breast carcinoma; conditions: ET-743 alone; human tumor xenografts grown in athymic mice; cited from earlier work
[5] = tested on: sarcoma and breast and ovarian carcinoma; conditions: ET-743 alone; phase I intravenous infusion schedules; cited from earlier work
[6] = ET-743 with doxorubicin; tests on animal models; WO 0236135; cited from earlier work
[7] = tested on: sarcoma cell line; conditions: ET-743 and doxorubicin, Meco et al. 2003; cited from earlier work
[8] = tested on: transplanted human sarcomas; conditions: ET-743 and doxorubicin; mice with transplanted human sarcomas; Meco et al. 2003; cited from earlier work
[9] = Phase I clinical trial (Example 2): safety profile and DLT of ET-743 days 1 and 8 with doxorubicin day 1; conditions: fixed Doxo dose day 1 with ET-743 700 μg/m^2 days 1 and 8, every 21 days

COc1cc2c(cc1O)CCN[C@]21CS[C@@H]2c3c(OC(C)=O)c(C)c4c(c3[C@H](COC1=O)N1[C@@H]2[C@H]2c3c(cc(C)c(OC)c3O)C[C@@H]([C@@H]1O)N2C)OCO4 [ET-743, ecteinascidin 743]
antitumor activity ([1]; 600-700 μg/m^2 of ET-743 in combination with Doxo): Antitumor activity was observed | patients with confirmed partial response (PR) ([1]; all ET-743 dose levels + Doxo 60 mg/m^2, 22 evaluable patients): 5 pts | antitumor activity of the combination ([1]; combination of ET-743 and doxorubicin, phase I clinical trials): evidence of antitumor activity | influence of order of administration on pharmacokinetics [2]: did not influence the pharmacokinetics | comparison of the plasma disposition in patients receiving both sequences [2]: did not reveal any significant pharmacokinetic interaction | tolerability of the combination [3]: tolerable and feasible | antineoplastic activity [4]: potent antineoplastic activity | responses in patients [5]: Promising responses | effect of the combination [6]: synergistic effect | effect of the combination [7]: additive effect | effect of the combination [8]: additive effect

COc1cccc2c1C(=O)c1c(O)c3c(c(O)c1C2=O)C[C@@](O)(C(=O)CO)C[C@@H]3O[C@H]1C[C@H](N)[C@H](O)[C@H](C)O1 [doxorubicin]
influence of order of administration on pharmacokinetics [2]: did not influence the pharmacokinetics | comparison of the plasma disposition in patients receiving both sequences [2]: did not reveal any significant pharmacokinetic interaction | MTD, Doxo part [9]: 50 mg/m^2
